From the METLIN SMRT retention time set (Domingo-Almenara et al. 2019) come the findings set out here.

SMILES strings stand for the structures.

This data set can be described thus: gradient 5% acetonitrile 3 min, to 50% in 2 min, to 85% in 15 min, held 3 min, 100 µL/min. Particulars: column: Zorbax Extend-C18 2.1 x 50 mm; eluents: water / acetonitrile, 0.1% formic acid. A digest of the protocol:
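Pure standards were analyzed in mixtures of ~100 molecules using HPLC coupled to a quadrupole time-of-flight mass spectrometer, in both positive and negative ionization mode. Separation used a Zorbax Extend-C18 column (2.1 × 50 mm, 1.8 μm) at 100 μL/min, with water and acetonitrile each containing 0.1% formic acid. Dead and dwell volumes were 40 μL and 900 μL, and data were collected over 3 months. Retention time was read from computationally picked adduct peaks, each inspected manually.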
`O=C(Cc1cccc(F)c1)N1CCC(n2nc(-c3ccsc3)ccc2=O)CC1` gave an RP-LC retention time of 812 s.

`O=C(Nc1ccc(N2CCOCC2)cc1)C1CCCN(c2ccnc(-c3ccc(F)cc3)n2)C1` (stereo not given) came in with an RP-LC retention time of 649 s.

The compound `CCN1C(=O)COc2ccc(-c3nc(NC(=O)c4ccc(Cl)cc4)sc3C)cc21` had an RP-LC retention time of 1130 s.

`COc1ccc(CN2C[C@@H]3C(=O)N(Cc4ccc5c(c4)OCO5)C(=O)[C@@H]3C2)cc1` yielded an RP-LC retention time of 689 s.

`CCCN1CCn2cc(S(=O)(=O)Nc3cc(OC)cc(OC)c3)cc2C1=O`: the RP-LC retention time was 744 s.

With `Cc1cc(C)n(-c2ccc(N3CCN(C(=O)COc4ncccn4)CC3)nn2)n1`, the RP-LC retention time was determined as 596 s.

`COC(=O)c1cc(S(=O)(=O)N2CCCC2C(=O)Nc2c(Cl)cc(OC)cc2OC)cn1C` (stereo not given) registered an RP-LC retention time of 930 s.

`Cc1ccc2nc(-c3ccccc3)c(Nc3ccc(Cl)cc3)n2c1` registered an RP-LC retention time of 755 s.

With `Cc1cccc(C)c1NC(=O)C1CCCN1S(=O)(=O)c1cc2c(cc1Cl)NC(=O)CO2` (stereo not given), the RP-LC retention time came to 778 s.

Turning to `O=C(NCCc1ccccc1)C1CCN(C(=O)c2ncn3c2COC(c2ccccc2)C3)CC1` (stereo not given), the RP-LC retention time came to 708 s.

Turning to `CN1CCN(c2ncncc2N2CCC(C(=O)N3CCN(c4ccccc4)CC3)CC2)CC1`, the RP-LC retention time worked out at 570 s.

`CCCn1ccc2sc(C)c(C(=O)N3CCN(c4ccc(F)cc4)CC3)c2c1=O` had an RP-LC retention time of 872 s.

For the compound `C=Cc1ccc(CN2C(=O)N(c3ccc(F)cc3)c3ncccc3S2(=O)=O)cc1`, the RP-LC retention time is 886 s.

In turn, `COc1ccc(-c2nnc(N3CCC(C(=O)NC(C)c4ccc(OC)cc4)CC3)o2)cc1` (stereo not given) came in with an RP-LC retention time of 815 s.

For the compound `Cc1cc(=O)n(CC(=O)NCc2ccc(F)cc2F)c(N2CCCCC2)n1`, the RP-LC retention time stood at 657 s.

In turn, `O=C(NC1CCN(c2cc(-c3ccccc3)[nH]n2)C1)c1ccc2cc[nH]c2c1` (stereo not given) had an RP-LC retention time of 792 s.

Compound `COCCC1CCN(C(=O)CN(C)C(=O)c2n[nH]c3ccccc23)CC1` yielded an RP-LC retention time of 661 s.

For `Cc1nccn1CCC(C(N)=O)(c1ccccc1)c1ccccc1`, the RP-LC retention time came to 688 s.

Take `CCN1C(=O)c2cccnc2Sc2cc(NC(=O)CCc3ccc(OC)cc3)ccc21`: the RP-LC retention time turned out to be 855 s.

`Cc1cc(C)cc(NC(=O)C2CCN(S(=O)(=O)c3cc(C(=O)N4CCOCC4)cs3)CC2)c1`: the RP-LC retention time is 760 s.

`CC1=C(C(=O)Nc2ccccc2F)C(c2ccccc2Br)NC(=O)N1` (stereo not given) yielded an RP-LC retention time of 672 s.

Compound `CC(C)(C)OC(=O)NC1[C@H]2CNC[C@@H]12` (stereo not given in full) came in with an RP-LC retention time of 609 s.

In turn, `Cc1nc2cc(N3CC(C(=O)Nc4ccccc4)CC3=O)ccc2o1` (stereo not given) showed an RP-LC retention time of 703 s.

In turn, `Cc1ccccc1Cn1c(CN2CCC(C(=O)NC3CCCCCC3)CC2)cc2ccccc21` came in with an RP-LC retention time of 885 s.

With `Cc1ccc(NC(=O)N2CCC(N3CCN(Cc4ccc(F)cc4)C(=O)C3=O)CC2)cc1C`, the RP-LC retention time was 774 s.

For `O=C(Nc1cc(F)cc(F)c1)C1CCN(c2cc(N3CCCC3)ncn2)CC1`, the RP-LC retention time came out at 724 s.

As to `O=C(c1nccnc1-c1nc2ccccc2s1)N1CCc2ccccc21`, the RP-LC retention time turned out to be 941 s.

Consider `O=C(NC1CC1)c1n[nH]c2c1CCCC2`, for which the RP-LC retention time worked out at 636 s.

Regarding `Cc1c(C(=O)NCC(C)C)cnn1-c1cc(-c2nc(C(C)(C)C)no2)ccn1`, the RP-LC retention time worked out at 1150 s.

In turn, `CCOCCOC1CCN(S(=O)(=O)Cc2ccccc2F)CC1` yielded an RP-LC retention time of 877 s.

For the compound `O=C(Nc1ccc2c(c1)N(S(=O)(=O)c1ccccc1)CCC2)c1ccc2c(c1)OCO2`, the RP-LC retention time was found to be 834 s.

With `Cc1cccc(-c2nc(Cn3ccnc3)no2)c1`, the RP-LC retention time was determined as 600 s.

With `Cc1nccn1-c1cc(C(C)C)c(C#N)c2nc3ccccc3n12`, the RP-LC retention time was 622 s.

`COCCCNC(=O)C1c2ccccc2CCN1C(C)=O` (stereo not given) had an RP-LC retention time of 641 s.

Consider `COc1ccc2[nH]c3c(c2c1)CCNC31CCN(Cc2ccc(F)cc2F)CC1`, for which the RP-LC retention time was found to be 580 s.

As to `O=C(CCC1CCN(c2cc(NC3CC3)ncn2)CC1)NCc1cccs1`, the RP-LC retention time was 633 s.

Regarding `Cc1cc(C(=O)Nc2ccccc2Cl)nc2cc(-c3ccco3)nn12`, the RP-LC retention time worked out at 1280 s.

Take `Cc1cc(C(N)=O)c2cc(C(C)C)ccc2n1`: the RP-LC retention time was determined as 591 s.

`COc1ccc(-c2nnc(N3CCC(C(=O)Nc4ccc(OC)cc4OC)CC3)o2)cc1`: the RP-LC retention time is 837 s.

`Cc1nc(-c2cc(S(=O)(=O)N3CCC(C(=O)NCCN4CCCCCC4)CC3)c(C)s2)no1` yielded an RP-LC retention time of 666 s.

`Cc1noc(C)c1Cc1c(C(=O)NCC23CCCC=C2NC(=O)CC3)noc1C` (stereo not given) yielded an RP-LC retention time of 726 s.

`Cc1ccc(CC(=O)NC2CCN(c3cc(C)cc(C)c3)C2=O)cc1` (stereo not given) yielded an RP-LC retention time of 893 s.

As to `O=C(CN1C(=O)CCc2cc(Br)ccc21)N1CCN(c2ccccn2)CC1`, the RP-LC retention time amounted to 621 s.

`O=S(=O)(Cc1ccc(Cl)cc1)c1nc2ccccc2nc1N1CCOCC1`: the RP-LC retention time came out at 756 s.

Turning to `CCN(C(=O)c1cc2c(s1)N(CC1CC1)CCCC2)C(C)C`, the RP-LC retention time is 1260 s.

In turn, `CCOCN(C(=O)Cn1c(C(C)O)nc2ccccc21)c1c(C)cccc1CC` (stereo not given) gave an RP-LC retention time of 748 s.

In turn, `Cc1nc(N2CCOCC2)c2c(C(=O)N3CCN(c4cccc(C)c4C)CC3)c(C)oc2n1` yielded an RP-LC retention time of 1000 s.

Take `CCNC(=O)c1ccc(-n2c(C)ccc2C)nc1`: the RP-LC retention time was determined as 566 s.

Take `CC(=O)Nc1cccc(N2CC(C(=O)Nc3ccc(C)cc3Br)CC2=O)c1` (stereo not given): the RP-LC retention time came to 720 s.

Turning to `CCOC(=O)CCNC(=O)N1CCN(Cc2nc3cccnc3n2-c2ccc(F)cc2)CC1`, the RP-LC retention time is 607 s.

`CCCCn1cc(S(=O)(=O)Nc2ccc(F)cc2)c2cccnc21` came in with an RP-LC retention time of 936 s.

For the compound `CCOC(=O)c1[nH]c(C)c(CCC(=O)N2CCC(C(=O)NC3CCCC3)CC2)c1C`, the RP-LC retention time was determined as 729 s.

The compound `CCn1c(=O)c(N2CCC(C(=O)NCCCN3CCCCC3C)CC2)nc2cccnc21` (stereo not given) showed an RP-LC retention time of 632 s.

In the case of `CCOc1ccccc1CNC(=O)C1CCN(Cc2cn(CC)c3ccc(OC)cc23)CC1`, the RP-LC retention time was determined as 759 s.

In turn, `CCC(=O)N1CCCC(C(=O)N2CCOCC2)C1` (stereo not given) gave an RP-LC retention time of 564 s.

In turn, `CC(C)NC(=O)c1cc(C(C)C)[nH]n1` displayed an RP-LC retention time of 660 s.

For the compound `COCCNC(=O)CCc1cc2ccc(C)cc2[nH]c1=O`, the RP-LC retention time came to 614 s.

With `COc1ccc(-c2nc(N(Cc3ccco3)C3CCCCC3)c3ccccc3n2)cc1`, the RP-LC retention time was 1030 s.

In turn, `O=C(c1ccc(Br)o1)N1CCN(c2nc3ccccc3nc2C(F)(F)F)CC1` registered an RP-LC retention time of 1140 s.

For the compound `CC(C)(C)c1csc(-c2csc(S(=O)(=O)NCc3ccc(Br)cc3)c2)n1`, the RP-LC retention time was found to be 1300 s.

Take `COC(=O)c1cnc2nc(C)ccc2c1Nc1ccc(Br)cc1`: the RP-LC retention time turned out to be 705 s.

As for `O=C(Nc1ccc(Cl)cc1)C(=O)c1c[nH]c2ccccc12`, the RP-LC retention time worked out at 1030 s.

Regarding `Cc1cccc(-c2ncccc2CNS(=O)(=O)c2cc(F)ccc2C)c1`, the RP-LC retention time came out at 774 s.

Turning to `CCOC(=O)C1=C(CN2CCN(C(C)CC)CC2)NC(=O)NC1c1ccccc1` (stereo not given), the RP-LC retention time turned out to be 625 s.

`CC1CCN(C(=O)C2CCN(S(=O)(=O)c3ccc(-c4noc(C5CC5)n4)cc3)CC2)CC1` yielded an RP-LC retention time of 1040 s.

The compound `Cn1c(=O)c(N2CCN(C(=O)c3cc(Cl)ccc3F)CC2)nc2ccncc21` yielded an RP-LC retention time of 560 s.

On to `O=c1c2nc(-c3ccc(Br)cc3)cn2ccn1-c1ccc(F)c(F)c1`, for which the RP-LC retention time is 924 s.

As to `Cn1nc(-c2nc(C(C)(C)C)no2)ccc1=O`, the RP-LC retention time was 761 s.

On to `O=C(Cn1nc2c3c4c(sc3ncn2c1=O)CCCC4)N1CCc2ccccc2C1`, for which the RP-LC retention time was found to be 1140 s.

In turn, `COC(=O)c1ncn2c1C(=O)N(Cc1cccc(Br)c1)C(C)(C(=O)NC1CCCC1)C2` (stereo not given) yielded an RP-LC retention time of 764 s.

Compound `Cn1cc(-c2cc3n(n2)CCC(=O)N3CCCC(=O)NCc2ccc3c(c2)OCO3)c2ccccc21` had an RP-LC retention time of 795 s.

As to `Cc1noc2nc(C)n(CC(=O)NCC(C)c3ccccc3)c(=O)c12` (stereo not given), the RP-LC retention time turned out to be 782 s.

As for `COc1cccc(CN2CCC3(CC2)CN(c2ncccn2)CC3CO)n1` (stereo not given), the RP-LC retention time turned out to be 562 s.

As for `COC(=O)C1=C(C)N(C(C)C)C(=O)C1(NC(=O)c1ccccc1OC)C(F)(F)F` (stereo not given), the RP-LC retention time amounted to 1010 s.

With `CCCCCOC(=O)Nc1nc(=O)n(C2OC(C)C(O)C2O)cc1F` (stereo not given), the RP-LC retention time was found to be 874 s.

For the compound `COc1ccc2c(C)c(CCC(=O)N[C@H](CC(C)C)C(=O)O)c(=O)oc2c1C`, the RP-LC retention time was determined as 781 s.

Turning to `O=C(CCn1cnc2cc(-c3noc(-c4cccc5[nH]ccc45)n3)ccc21)N1CCCC1`, the RP-LC retention time worked out at 701 s.

The compound `O=C(Nc1cc(F)ccc1Cl)c1ccc2c(c1)nnn2CCN1CCOCC1` showed an RP-LC retention time of 633 s.

`CCn1cc(CC(=O)NCc2ccc3c(c2)OCO3)c2cccnc21` gave an RP-LC retention time of 690 s.

On to `Cc1cc(C)c2c(N3CCSCC3)nc(C(=O)NCC3CCCO3)nc2n1` (stereo not given), for which the RP-LC retention time amounted to 624 s.
